Laboratory results taken from US6803374B2, “Compounds useful for treating hepatitis C virus” (priority 2001, dated 2004).
pIC50: −log10 of the molar value.

Biological target: T1, HCV NS5B RdRp genotype 1b (Hepatitis C virus genotype 1b, UniProt Q9WMX2)
T1 construct: The protein was expressed with an 18 amino acid C-terminal truncation to enhance the solubility; made in house; host or cells: E. coli BL21(DE3)
Assay: HCV NS5B RdRp enzyme assay
Format: biochemical
Conditions: IC50, HCV RdRp genotype 1b enzyme, C-terminal 18 aa truncated; average of single point IC50 values
Description: HCV NS5B RdRp cloning, expression and purification. The cDNA encoding the NS5B protein of HCV, genotype 1b, was cloned into the pET21a expression vector. The protein was expressed with an 18 amino acid C-terminal truncation to enhance the solubility. The E. coli competent cell line BL21(DE3) was used for expression of the protein. Cultures were grown at 37° C. for ˜4 hours until the cultures reached an optical density of 2.0 at 600 nm. The cultures were cooled to 20° C. and induced with 1 mM IPTG. Fresh ampicillin was added to a final concentration of 50 ug/ml and the cells were grown overnight at 20° C.
Cell pellets (3L) were lysed for purification to yield 15-24 mgs of purified NS5B. The lysis buffer consisted of 20 mM Tris-HCl, pH 7.4, 500 mM NaCl, 0.5% triton X-100, 1 mM DTT, 1 mM EDTA, 20% glycerol, 0.5 mg/ml lysozyme, 10 mM MgCl2, 15 ug/ml deoxyribonuclease I, and Complete TM protease inhibitor tablets (Roche). After addition of the lysis buffer, frozen cell pellets were resuspended using a tissue homogenizer. To reduce the viscosity of the sample, aliquots of the lysate were sonicated on ice using a microtip attached to a Branson sonicator. The sonicated lysate was centrifuged at 100,000×g for 1 hr at 4° C. and filtered through a 0.2 μm filter unit (Corning).
The protein was purified using three sequential chromatography steps: Heparin sepharose CL-6B, polyU sepharose 4B, and Hitrap SP sepharose (Pharmacia). The chromatography buffers were identical to the lysis buffer but contained no lysozyme, deoxyribonuclease I, MgCl2 or protease inhibitor and the NaCl concentration of the buffer was adjusted according to the requirements for charging the protein onto the column. Each column was eluted with a NaCl gradient which varied in length from 5-50 column volumes depending on the column type. After the final chromatography step, the resulting purity of the enzyme is >90% based on SDS-PAGE analysis. The enzyme was aliquoted and stored at −80° C.
HCV NS5B RdRp enzyme assay. HCV RdRp genotype 1b assays were run in assay buffer composed of 20 mM Tris-HCl, pH 7.5, 2.5 mM KCl, 5 mM MgCl2, 1 mM DTT, 1.6 U RNAse inhibitor (Promega N2515), in 96 well plates (Falcon 3918). All compounds were serially diluted in DMSO and diluted further in assay buffer such that the final concentration of DMSO in the assay was 2%. Compounds were serially diluted (3-fold each time) for a 7 point inhibition analysis. HCV RdRp genotype 1b enzyme was used at a final concentration of 28 nM. A polyA template was used at 28 nM, and the oligo-dT12-18 primer was used at 840 nM final concentration. Preannealed primer and template were obtained commercially (Amersham 27-787802). ^3H-UTP was used at 0.125 μCi (1 μM total UTP). Reaction was initiated by the addition of enzyme. Reactions were incubated at 30° C. for 45 min, and stopped by adding 30 ul of 20% ice cold TCA. Plates were chilled for 30 minutes and harvested onto Unifilter-96, GF/B plates (Packard, 6005177) using a Packard FilterMate Cell Harvester. The harvest plates were prewashed 3 times, 200 ul/well, with 100 mM NaPPi. Harvested filters were washed 30 times, 200 ul/well, with distilled water followed by ethanol. Filter plates were dried, and 30 ul/well microscint-20 was added. Plates were read on a Packard Top Count NXT.
The IC50 values for compounds were determined using […] different [I], combined with 7 nM enzyme, 800 ng of the template-primer polyC/oligoG12 (1:5 molar ratio), and 0.7 uM of ^3H GTP containing 1 uCi. The observed fractional activity (fa=vi/vo) was used in the equation IC50=[I]/(1/fa-1) to determine a single point IC50 value. Typically, the single point IC50 values derived from [I] that produced fractional activities in the range of 0.1 to 0.8 relative to the uninhibited control were averaged to calculate the IC50 value for each compound.

T1 sequence (Q9WMX2 2420-2992): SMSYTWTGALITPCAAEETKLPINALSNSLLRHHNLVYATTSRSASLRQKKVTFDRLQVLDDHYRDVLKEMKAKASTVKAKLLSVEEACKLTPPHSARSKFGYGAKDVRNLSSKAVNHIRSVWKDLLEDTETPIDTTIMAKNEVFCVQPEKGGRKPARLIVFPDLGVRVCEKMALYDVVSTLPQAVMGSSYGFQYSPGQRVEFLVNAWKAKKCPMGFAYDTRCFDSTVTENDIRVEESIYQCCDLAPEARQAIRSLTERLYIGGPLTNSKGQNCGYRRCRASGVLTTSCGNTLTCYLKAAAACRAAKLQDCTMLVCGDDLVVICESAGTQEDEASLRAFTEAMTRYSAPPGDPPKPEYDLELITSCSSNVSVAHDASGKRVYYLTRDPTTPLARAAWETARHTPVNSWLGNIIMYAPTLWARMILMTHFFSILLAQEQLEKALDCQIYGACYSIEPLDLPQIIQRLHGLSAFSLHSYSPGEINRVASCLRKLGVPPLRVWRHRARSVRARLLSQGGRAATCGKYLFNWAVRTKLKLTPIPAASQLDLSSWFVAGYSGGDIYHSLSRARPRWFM

Row | SMILES | pIC50
1 | O=C(O)c1ccc(-c2ccc(C(F)(F)F)cc2)c(COc2ccc(-c3nc4cc(-c5nnn[nH]5)ccc4n3C3CCCCC3)cc2)c1 [Example 31] | 7.22
2 | CC(=O)Nc1cccc(-c2ccc(C(=O)O)cc2COc2ccc(-c3nc4cc(-c5nnn[nH]5)ccc4n3C3CCCCC3)cc2)c1 [Example 32] | 7.40
3 | O=C(O)c1ccc(-c2cccc(O)c2)c(COc2ccc(-c3nc4cc(-c5nnn[nH]5)ccc4n3C3CCCCC3)cc2)c1 [Example 33] | 7.40
4 | N#Cc1ccc(-c2ccc(C(=O)O)cc2COc2ccc(-c3nc4cc(-c5nnn[nH]5)ccc4n3C3CCCCC3)cc2)cc1 [Example 34] | 7.40
5 | O=C(O)c1ccc(-c2ccccc2)c(COc2ccc(-c3nc4cc(-c5nnn[nH]5)ccc4n3C3CCCCC3)cc2)c1 [Example 35] | 7.15
6 | O=Cc1ccccc1-c1ccc(C(=O)O)cc1COc1ccc(-c2nc3cc(-c4nnn[nH]4)ccc3n2C2CCCCC2)cc1 [Example 36] | 6.08
7 | O=Cc1ccc(-c2ccc(C(=O)O)cc2COc2ccc(-c3nc4cc(-c5nnn[nH]5)ccc4n3C3CCCCC3)cc2)cc1 [Example 37] | 7.15
8 | O=C(O)c1ccc(-c2ccc([N+](=O)[O-])cc2)c(COc2ccc(-c3nc4cc(-c5nnn[nH]5)ccc4n3C3CCCCC3)cc2)c1 [Example 41] | 7.30
9 | O=C(O)c1ccc(-c2ccc(CO)cc2)c(COc2ccc(-c3nc4cc(-c5nnn[nH]5)ccc4n3C3CCCCC3)cc2)c1 [Example 42] | 7.30
10 | Cc1ccc(-c2ccc(C(=O)O)cc2COc2ccc(-c3nc4cc(-c5nnn[nH]5)ccc4n3C3CCCCC3)cc2)cc1N [Example 43] | 6.62
11 | COc1ccc(-c2ccc(C(=O)O)cc2COc2ccc(-c3nc4cc(-c5nnn[nH]5)ccc4n3C3CCCCC3)cc2)cc1OC [Example 44] | 7.10
12 | CC(=O)c1ccc(-c2ccc(C(=O)O)cc2COc2ccc(-c3nc4cc(-c5nnn[nH]5)ccc4n3C3CCCCC3)cc2)cc1 [Example 45] | 7.10
13 | O=C(O)c1ccc(-c2ccc(O)cc2)c(COc2ccc(-c3nc4cc(-c5nnn[nH]5)ccc4n3C3CCCCC3)cc2)c1 [Example 46] | 7.22
14 | O=C(O)C=Cc1ccc(-c2ccc(C(=O)O)cc2COc2ccc(-c3nc4cc(-c5nnn[nH]5)ccc4n3C3CCCCC3)cc2)cc1 [Example 47] | 7.30
15 | O=C(c1ccc(-c2ccc(Cl)cc2)c(COc2ccc(-c3nc4cc(-c5nnn[nH]5)ccc4n3C3CCCCC3)cc2)c1)N1CCC(O)CC1 [Example 48] | 6.49
16 | CNC(=O)c1ccc(-c2ccc(C#N)cc2)c(COc2ccc(-c3nc4cc(-c5nnn[nH]5)ccc4n3C3CCCCC3)cc2)c1 [Example 49] | 7.10
17 | CNC(=O)c1ccc(-c2ccc(Cl)cc2)c(COc2ccc(-c3nc4cc(-c5nnn[nH]5)ccc4n3C3CCCCC3)cc2)c1 [Example 50] | 6.64
18 | CC(C)(C)OC(=O)C(Cc1ccc(OC(C)(C)C)cc1)NC(=O)c1cccc(COc2ccc(-c3nc4cc(-c5nnn[nH]5)ccc4n3C3CCCCC3)cc2)c1 (stereo not drawn) [Example 51] | 6.03
19 | CC(NC(=O)c1ccc(-c2cccc(O)c2)c(COc2ccc(-c3nc4cc(-c5nnn[nH]5)ccc4n3C3CCCCC3)cc2)c1)C(=O)O (stereo not drawn) [Example 52] | 6.33
20 | O=C(NC(Cc1ccc(O)cc1)C(=O)O)c1ccc(-c2cccc(O)c2)c(COc2ccc(-c3nc4cc(-c5nnn[nH]5)ccc4n3C3CCCCC3)cc2)c1 (stereo not drawn) [Example 53] | 6.24
21 | NC(=O)CCNC(=O)c1ccc(-c2cccc(O)c2)c(COc2ccc(-c3nc4cc(-c5nnn[nH]5)ccc4n3C3CCCCC3)cc2)c1 [Example 55] | 6.70

Row | SMILES | pIC50
22 | CC(NC(=O)c1ccc(-c2ccc(F)c(Cl)c2)c(COc2ccc(-c3nc4cc(-c5nnn[nH]5)ccc4n3C3CCCCC3)cc2)c1)C(=O)O (stereo not drawn) [Example 56] | 6.72
23 | O=C(NC(Cc1ccc(O)cc1)C(=O)O)c1ccc(-c2ccc(F)c(Cl)c2)c(COc2ccc(-c3nc4cc(-c5nnn[nH]5)ccc4n3C3CCCCC3)cc2)c1 (stereo not drawn) [Example 57] | 6.74
24 | NC(=O)CCNC(=O)c1ccc(-c2ccc(F)c(Cl)c2)c(COc2ccc(-c3nc4cc(-c5nnn[nH]5)ccc4n3C3CCCCC3)cc2)c1 [Example 59] | 6.04
25 | COc1ccc(-c2ccc(C(=O)NC(Cc3ccc(O)cc3)C(=O)O)cc2COc2ccc(-c3nc4cc(-c5nnn[nH]5)ccc4n3C3CCCCC3)cc2)cc1OC (stereo not drawn) [Example 61] | 7.05
26 | COc1ccc(-c2ccc(C(=O)NCCC(N)=O)cc2COc2ccc(-c3nc4cc(-c5nnn[nH]5)ccc4n3C3CCCCC3)cc2)cc1OC [Example 63] | 6.82
27 | CN1CCN(C(=O)c2ccc(-c3cccc(O)c3)c(COc3ccc(-c4nc5cc(-c6nnn[nH]6)ccc5n4C4CCCCC4)cc3)c2)CC1 [Example 64] | 5.92
28 | O=C(c1ccc(-c2cccc(O)c2)c(COc2ccc(-c3nc4cc(-c5nnn[nH]5)ccc4n3C3CCCCC3)cc2)c1)N1CCOCC1 [Example 65] | 5.77
29 | O=C(c1ccc(-c2cccc(O)c2)c(COc2ccc(-c3nc4cc(-c5nnn[nH]5)ccc4n3C3CCCCC3)cc2)c1)N1CCCC1 [Example 66] | 5.85
30 | O=C(NCCCO)c1ccc(-c2cccc(O)c2)c(COc2ccc(-c3nc4cc(-c5nnn[nH]5)ccc4n3C3CCCCC3)cc2)c1 [Example 67] | 6.10
31 | CNC(=O)c1ccc(-c2cccc(O)c2)c(COc2ccc(-c3nc4cc(-c5nnn[nH]5)ccc4n3C3CCCCC3)cc2)c1 [Example 68] | 6.27
32 | O=C(c1ccc(-c2cccc(O)c2)c(COc2ccc(-c3nc4cc(-c5nnn[nH]5)ccc4n3C3CCCCC3)cc2)c1)N1CCC(O)CC1 [Example 69] | 6.18
33 | O=C(c1ccc(-c2cccc(O)c2)c(COc2ccc(-c3nc4cc(-c5nnn[nH]5)ccc4n3C3CCCCC3)cc2)c1)N(CCO)CCO [Example 70] | 6.30
34 | CC(NC(=O)c1ccc(-c2cccc(O)c2)c(COc2ccc(-c3nc4cc(-c5nnn[nH]5)ccc4n3C3CCCCC3)cc2)c1)C(=O)OC(C)(C)C (stereo not drawn) [Example 71] | 6.28
35 | CC(C)(C)OC(=O)CNC(=O)c1ccc(-c2cccc(O)c2)c(COc2ccc(-c3nc4cc(-c5nnn[nH]5)ccc4n3C3CCCCC3)cc2)c1 [Example 72] | 6.03
36 | O=C(O)CNC(=O)c1ccc(-c2cccc(O)c2)c(COc2ccc(-c3nc4cc(-c5nnn[nH]5)ccc4n3C3CCCCC3)cc2)c1 [Example 74] | 6.82
37 | O=C(c1ccc(-c2ccc(F)c(Cl)c2)c(COc2ccc(-c3nc4cc(-c5nnn[nH]5)ccc4n3C3CCCCC3)cc2)c1)N1CCOCC1 [Example 76] | 5.85
38 | O=C(c1ccc(-c2ccc(F)c(Cl)c2)c(COc2ccc(-c3nc4cc(-c5nnn[nH]5)ccc4n3C3CCCCC3)cc2)c1)N1CCCC1 [Example 77] | 5.92
39 | O=C(NCCCO)c1ccc(-c2ccc(F)c(Cl)c2)c(COc2ccc(-c3nc4cc(-c5nnn[nH]5)ccc4n3C3CCCCC3)cc2)c1 [Example 78] | 6.16
40 | CNC(=O)c1ccc(-c2ccc(F)c(Cl)c2)c(COc2ccc(-c3nc4cc(-c5nnn[nH]5)ccc4n3C3CCCCC3)cc2)c1 [Example 79] | 6.26
41 | O=C(c1ccc(-c2ccc(F)c(Cl)c2)c(COc2ccc(-c3nc4cc(-c5nnn[nH]5)ccc4n3C3CCCCC3)cc2)c1)N(CCO)CCO [Example 81] | 5.96
42 | CC(NC(=O)c1ccc(-c2ccc(F)c(Cl)c2)c(COc2ccc(-c3nc4cc(-c5nnn[nH]5)ccc4n3C3CCCCC3)cc2)c1)C(=O)OC(C)(C)C (stereo not drawn) [Example 82] | 5.89
